Source: patent US8039670B2, “Analogs of alpha galactosyceramide and uses thereof” (Ludwig Institute for Cancer Research, priority 2005, dated 2011)

Key:
[1] = tested on: antigen-specific CD8^+ T cells; assay: OVA-specific CD8+ T cells after co-injection with OVA ([…]-Kb tetramer); type: in vivo, C57BL/6 mice; conditions: 1 μg with 800 μg OVA, 6 days
Experimental: (§1) (A) C57BL/6 mice were co-injected with 1 μg α-GalCer or analog and 800 μg OVA. 6 days later blood samples taken from the tail vein were stained directly ex vivo with fluorescent […]-K^b tetramers and an anti-CD8 antibody and analyzed by flow cytometry. Data are shown as tetramer positive cells as a percentage of CD8^+ cells. (B) 7 days after injection, the mice were challenged in a prophylactic setting with 1×10^6 E.G7-OVA tumour cells s.c. and the size of the tumour monitored over subsequent days.
Previously we, and others have shown that co-injection of model antigens such as OVA (Silk, Hermans et al, J Clin Invest, 2004, 114; 1800-11, Fujii, Shimizu et al, J Exp Med, 2003, 198; 267-79, Hermans, Silk et al, J Immunol, 2003, 171; 5140-7) and β-galactosidase (Silk, Hermans et al, J Clin Invest, 2004, 114; 1800-11) together with α-GalCer induces enhanced CD8^+, CD4^+ T cell and B cell responses. These were effective for therapy against tumour cells expressing the target antigen. The various analogs were co-injected with OVA into wild type mice and 6 days later the blood examined for the presence of antigen-specific CD8^+ T cells using fluorescent K^b-[…] tetramers.

p40 form of IL-12 = assay: Example A: IL-12 p40 ELISA as indication of DC stimulation; type: cell-based, human
[2] = tested on: IFN-γ from the iNKT cells; assay: IFN-γ ELISA of supernatants of DC/iNKT co-cultures; type: cell-based, human; conditions: analogs presented by DC
Experimental: (§2) Different analogs of α-GalCer as indicated or LPS were added to co-cultures of human DC and iNKT cells. (A) Maturation of the DC was assessed after 40 h, gating on CD11c positive cells. Histograms indicate the CD83 and CD86 profiles of DC from different treatments; the percentages indicate the percentage of CD83hi mature DC and the numbers in parenthesis, the mean fluorescence intensity of the population contained within the labeled gate. DC and iNKT cells were co-cultured in the presence of different analogs of α-GalCer for 24 hours. Supernatants were analyzed using ELISA for the presence of (B) IL-12p40 released by the DC and (C) IFN-γ from the iNKT cells. […] Cells were co-cultured in the presence of the indicated concentration of analog and the percentages of DC with increased CD83/CD80 are shown. […] Viability of α-GalCer or analog-pulsed DC was assessed after 40 h co-culture in the presence of iNKT cells by flow cytometry. Cells were stained with propidium iodide and the percentage of live CD11c gated cells remaining in the culture are shown.
(§3) Human monocyte-derived DC were pulsed with 150 ng of different inositol analogs and co-cultured with iNKT cells for 24 h. […] Numbers indicate the mean fluorescence intensity of the histogram gated on CD11c^+ cells.

[3] = tested on: human monocyte derived DCs; assay: Example A: DC maturation markers in human monocyte derived DC with NKT cells (FACS); type: cell-based; conditions: 100 ng/ml, 36 hours, 10 DC/NKT cell
Experimental: The methodology of Salio, et al., J. Immunol., 167:1188-1197 (2001), incorporated by reference, was followed. In brief, 2×105 human monocyte derived DCs were pulsed with 100 ng/ml of one of Compounds 2, 3, αGal-Cer, or vehicle solution, as a control. For DC pulsing, each of arabinitol ceramide (Compound 1), threitol ceramide (Compound 3), glycerol ceramide (Compound 2) and αGal-Cer was solubilized in vehicle solution (0.5% Tween 20/PBS), and added to the medium of the DC cultures. […] After 36 hours, supernatant was removed from cultures and analyzed for the presence of known DC maturation markers CD83, CD80, CD86, CD25, and CD38, all of which were analyzed via FACS, using well known methods.

human DC = assay: DC maturation in co-culture of human DC and iNKT cells (flow cytometry CD83, CD86, CD38); type: cell-based
Experimental: as §2, §3
Immature human DC were cultured in the presence of a human iNKT cell clone with or without analogs or vehicle at different concentrations.
(§4) To compare the functions of high affinity α-GalCer, intermediate affinity threitolceramide with the known, low affinity analog OCH, the three compounds were titrated onto DC and used to present to iNKT cells. Maturation of DC and DC viability were examined after 48 h.

OVA specific response = assay: Example C: OVA specific CTL response in mice injected with OVA and compound (tetramer); type: in vivo; conditions: 400 μg OVA with 1 μg compound i.v.
Experimental: Subject animals, five mice per group, received an intravenous injection of 400 μg of ovalbumin (OVA) together with 1 μg of one of the compounds of the invention under examination or an equivalent volume of PBS diluted vehicle solution. A subset of mice were injected with 25 μg of the molecule MPL (Sigma-Aldrich; extracted from Salmonella Minnesota) solubilized in PBS.
Following the injections, blood was obtained from lateral tail veins, and PBLs were isolated, using standard methods. The PBLs were then stained, directly, […], with tetrameric, H-2 Kb/OVA 257-264, H-21 Kb complexes, following Palmowski, et al., J. Immunol., 168:4391-4398 (2002), incorporated by reference. The tetramers were prepared in accordance with Whilan, et al., J. Immunol., 163:4342-4348 (1999), incorporated by reference.

[4] = tested on: OVA specific IgG antibodies; assay: Example D: OVA specific IgG antibodies in serum of immunized mice (ELISA); type: in vivo; conditions: ten days following immunization
Experimental: OVA protein coated ELISA plates, were prepared, using well known methods. Then, blood samples were taken, ten days following immunization, and serum was prepared.
The samples were taken from mice that had been immunized with OVA only, OVA and Compound 1, arabinitol ceramide, OVA and αGal-Cer, or OVA and Compound 2, glycerol ceramide. Additionally, mice were immunized with each of these schedules with MPL added. Serum IgG titers were measured by adding serial dilutions of mouse serum were detected using horseradish peroxidase (HRP) conjugated α-mouse IgG.

E.G7-OVA tumour cells = assay: Prophylactic challenge with E.G7-OVA tumour cells after co-injection with OVA; type: in vivo, C57BL/6 mice; conditions: injected with OVA, challenge 7 days later with 1×10^6 E.G7-OVA s.c.
Experimental: as §1

[5] = tested on: DCs obtained from the spleen; assay: Example E: phenotyping of spleen DCs after tail vein injection (CD86); type: in vivo, mice; conditions: 1 μg tail vein, 24 h
Experimental: In brief, in each experiment, 1 μg of one of a selection of compounds of the invention was injected into the tail vein of subject mice. 24 h later spleen tissue was removed from the animals and gently teased through gauze into complete medium, supplemented with 5 mM of EDTA. Cells were enriched for CD11c by anti-CD11, magnetic beads using published techniques. Once enriched, they were assayed for maturation markers using antibody staining and flow cytometry. Non-specific staining was addressed by using an antibody specific for the Fc-RIII/II receptor.

[6] = tested on: IL-12p40 released by the DC; assay: IL-12p40 ELISA of supernatants of DC/iNKT co-cultures; type: cell-based, human; conditions: DC/iNKT co-culture, 24 hours
Experimental: as §2, §3
Release of IL-12p40 (and bioactive p75) by DC is a marker of activation and is thought to play an important role in regulating the profile of the immune response generated in response to those DC (Trinchieri et al, Nat Rev Immunol, 2003, 3; 133-46).

IL-4 and IFN-γ = assay: Serum cytokines after i.v. injection into mice (ELISA); type: in vivo, C57BL/6 mice
Experimental: C57BL/6 or iNKT^−/− mice were injected i.v. with 1 μg of vehicle, α-GalCer, analog or 25 μg MPL. Twenty hours after injection splenocytes were stained with antibodies against CD11c, B220 and CD86 and analyzed by flow cytometry. (A) Maturation was assessed by the upregulation of CD86 at the cell surface, gating on DC (CD11c^+). Mean fluorescence intensity for each histogram is indicated. These are representative profiles of two independent experiments. 2, 6 and 18-24 h after injection as described, the mice were bled and the serum tested with ELISA for the presence of (B) IL-4 and (C) IFN-γ released in response to the analog.
Stimulation of iNKT cells by α-GalCer in the context of CD1d rapidly induces release of significant levels of a number of cytokines including IFN-γ and IL-4 (Burdin, Brossay et al, J Immunol, 1998, 161; 3271-81), IL-3 and GM-CSF (Leite-de-Moraes, Lisbonne et al, Eur J Immunol, 2002, 32; 1897-904) with other downstream cell-types including DC (Kitamura, Iwakabe et al, J Exp Med, 1999, 189; 1121-8) and NK cells (Carnaud, Lee et al, J Immunol, 1999, 163; 4647-50) being activated.

human CD1d molecules = target: T1, human CD1d molecules (Homo sapiens, UniProt P15813); assay: Dissociation of ligand from hCD1d, surface plasmon resonance with 9B Fab; type: binding; conditions: fold faster than α-GalCer
T1 construct: soluble human CD1d molecules; biotin (biotinylated); made in house
Excerpt: FIG. 1 Comparison of dissociation rate of OCH and α-GalCer. Dissociation of ligand from hCD1d. The indicated hCD1d (α-Gal Cer or OCH) complex was loaded onto a Surface Plasmon resonance (Biacore) sensor surface at t=0 and the amount of hCD1d remaining at the indicated time point measured using the Fab 9B.
Using the 9B Fab we looked at the rate of dissociation of all the tested compounds from soluble human CD1d molecules using surface plasmon resonance. Biotinylated CD1d-lipid complexes were immobilized to streptavidin-coated chips and the level of binding of the 9B Fab was measured over time. The loss of binding of the antibody over time was used to determine the rate of lipid dissociation from CD1d molecules.

DC = assay: Viability of analog-pulsed DC co-cultured with iNKT cells (propidium iodide); type: cell-based, human; conditions: at concentration of maximal DC maturation
Experimental: Different analogs of α-GalCer as indicated or LPS were added to co-cultures of human DC and iNKT cells. (A) Maturation of the DC was assessed after 40 h, gating on CD11c positive cells. Histograms indicate the CD83 and CD86 profiles of DC from different treatments; the percentages indicate the percentage of CD83hi mature DC and the numbers in parenthesis, the mean fluorescence intensity of the population contained within the labeled gate. DC and iNKT cells were co-cultured in the presence of different analogs of α-GalCer for 24 hours. Supernatants were analyzed using ELISA for the presence of (B) IL-12p40 released by the DC and (C) IFN-γ from the iNKT cells. All the compounds tested induced weaker but significant cytokine production than α-GalCer, with the exception of arabinitolceramide. (D) Titration of α-GalCer, OCH or threitolceramide on DCs and co-culture with iNKT cells induces DC maturation in vitro. Cells were co-cultured in the presence of the indicated concentration of analog and the percentages of DC with increased CD83/CD80 are shown. […] Viability of α-GalCer or analog-pulsed DC was assessed after 40 h co-culture in the presence of iNKT cells by flow cytometry. Cells were stained with propidium iodide and the percentage of live CD11c gated cells remaining in the culture are shown.
as §4

T1 sequence (P15813 20-301 limits assumed): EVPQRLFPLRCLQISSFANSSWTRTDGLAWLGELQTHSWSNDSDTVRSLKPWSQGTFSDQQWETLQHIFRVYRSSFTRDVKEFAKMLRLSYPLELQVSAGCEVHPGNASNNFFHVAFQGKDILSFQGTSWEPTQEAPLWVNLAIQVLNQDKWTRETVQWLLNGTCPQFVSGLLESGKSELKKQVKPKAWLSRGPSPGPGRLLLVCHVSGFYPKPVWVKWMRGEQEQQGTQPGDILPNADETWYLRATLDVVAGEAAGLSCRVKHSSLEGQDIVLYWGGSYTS
T1 sequence (P61769 21-119 partner): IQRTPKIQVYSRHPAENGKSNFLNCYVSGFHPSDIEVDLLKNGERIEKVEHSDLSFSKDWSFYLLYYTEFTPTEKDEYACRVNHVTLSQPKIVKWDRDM

| SMILES | antigen-specific CD8+ T cell response [1] | IL-12 potency, fold less potent than Compound 3 (p40 form of IL-12) | IFN-γ released by the iNKT cells [2] | induction of DC maturation markers (CD83, CD80, CD86, CD25, CD38) [3] | DC maturation (upregulation of CD83, CD86 and CD38) (human DC; human DC with iNKT cell clone, 24 hours) | OVA specific response (OVA specific response) | OVA specific antibody response, adjuvant effect compared with MPL [4] | tumour growth (E.G7-OVA tumour cells) | induction of CD86 on spleen DC in vivo [5] | IL-12p40 released [6] | skewing of cytokine response to Th2 (IL-4 and IFN-γ; compared with OCH) | potency of cytokine induction compared with α-GalCer (IL-4 and IFN-γ; equivalent doses) | cytokine release in serum (IL-4, IFN-γ, IL-12p40/70) (IL-4 and IFN-γ; wild type mice, 1 μg i.v., 2, 6 and 18-24 h) | concentration inducing maximal DC maturation (human DC; titration on DC, 48 h) | rate of dissociation from hCD1d relative to α-GalCer (human CD1d molecules) | DC viability (propidium iodide negative) compared with α-GalCer (DC) |
| --- | --- | --- | --- | --- | --- | --- | --- | --- | --- | --- | --- | --- | --- | --- | --- | --- |
| CCCCCCCCCCCCCCCCCCCCCCCCCC(=O)N[C@@H](COCC(O)[C@@H](O)[C@@H](O)CO)[C@H](O)C(O)CCCCCCCCCCCCCC (stereo partly shown) [Compound 1, Arabinitol Ceramide] | induced a significant CD8^+ T cell response after 6 days, although less potently than α-GalCer | approximately 1000 fold | no detectable IFNγ | DC maturation markers are induced | only weakly functional | enhancement of the OVA specific response | more effective as adjuvants than MPL | little or no tumour growth | induced CD86 in vivo similarly | little IL-12p40 was detected | Neither compound showed a skewed Th2 cytokine response | less potent than α-GalCer at equivalent doses | detected in the serum with a similar time-course to that seen with α-GalCer |  |  |  |
| CCCCCCCCCCCCCCCCCCCCCCCC(=O)N[C@@H](CO[C@H]1O[C@H](CO)[C@H](O)[C@H](O)[C@H]1O)[C@H](O)[C@H](O)CCCCC [OCH, (2S,3S,4R)-1-O-(α-D-galactopyranosyl)-N-tetracosanoyl-2-amino-1,3,4-nonanetriol] |  |  |  |  |  |  |  |  |  |  |  |  |  | 67 ng/mL | 3.9 fold | significantly greater proportion of DC were propidium iodide negative |
